We go through five compounds from BindingDB's records for PubMed 36327695 (n/a, 2022).

Usually IC50 stands for the midpoint of a concentration-inhibition curve. A higher IC50 goes with a need for much substance. The Ki is a measure of affinity in units of concentration, obtained from inhibition or displacement. High values mean weaker binding, low ones tighter binding.

The target of test [1] is T1, Maltase-glucoamylase (Homo sapiens, UniProt O43451). As to the kind of experiment: Inhibition of alpha-glucosidase (unknown origin) using pNPG as substrate preincubated with enzyme for 15 mins followed by substrate addition and measured after 10 mins by microplate reader analysis.
The target of test [2] is T1, Maltase-glucoamylase. As to the kind of experiment: Non-competitive inhibition of alpha-glucosidase (unknown origin) using pNPG as substrate preincubated with enzyme for 15 mins followed by substrate addition and measured for 15 mins by Dixon plot analysis.

T1 sequence (O43451 whole entry): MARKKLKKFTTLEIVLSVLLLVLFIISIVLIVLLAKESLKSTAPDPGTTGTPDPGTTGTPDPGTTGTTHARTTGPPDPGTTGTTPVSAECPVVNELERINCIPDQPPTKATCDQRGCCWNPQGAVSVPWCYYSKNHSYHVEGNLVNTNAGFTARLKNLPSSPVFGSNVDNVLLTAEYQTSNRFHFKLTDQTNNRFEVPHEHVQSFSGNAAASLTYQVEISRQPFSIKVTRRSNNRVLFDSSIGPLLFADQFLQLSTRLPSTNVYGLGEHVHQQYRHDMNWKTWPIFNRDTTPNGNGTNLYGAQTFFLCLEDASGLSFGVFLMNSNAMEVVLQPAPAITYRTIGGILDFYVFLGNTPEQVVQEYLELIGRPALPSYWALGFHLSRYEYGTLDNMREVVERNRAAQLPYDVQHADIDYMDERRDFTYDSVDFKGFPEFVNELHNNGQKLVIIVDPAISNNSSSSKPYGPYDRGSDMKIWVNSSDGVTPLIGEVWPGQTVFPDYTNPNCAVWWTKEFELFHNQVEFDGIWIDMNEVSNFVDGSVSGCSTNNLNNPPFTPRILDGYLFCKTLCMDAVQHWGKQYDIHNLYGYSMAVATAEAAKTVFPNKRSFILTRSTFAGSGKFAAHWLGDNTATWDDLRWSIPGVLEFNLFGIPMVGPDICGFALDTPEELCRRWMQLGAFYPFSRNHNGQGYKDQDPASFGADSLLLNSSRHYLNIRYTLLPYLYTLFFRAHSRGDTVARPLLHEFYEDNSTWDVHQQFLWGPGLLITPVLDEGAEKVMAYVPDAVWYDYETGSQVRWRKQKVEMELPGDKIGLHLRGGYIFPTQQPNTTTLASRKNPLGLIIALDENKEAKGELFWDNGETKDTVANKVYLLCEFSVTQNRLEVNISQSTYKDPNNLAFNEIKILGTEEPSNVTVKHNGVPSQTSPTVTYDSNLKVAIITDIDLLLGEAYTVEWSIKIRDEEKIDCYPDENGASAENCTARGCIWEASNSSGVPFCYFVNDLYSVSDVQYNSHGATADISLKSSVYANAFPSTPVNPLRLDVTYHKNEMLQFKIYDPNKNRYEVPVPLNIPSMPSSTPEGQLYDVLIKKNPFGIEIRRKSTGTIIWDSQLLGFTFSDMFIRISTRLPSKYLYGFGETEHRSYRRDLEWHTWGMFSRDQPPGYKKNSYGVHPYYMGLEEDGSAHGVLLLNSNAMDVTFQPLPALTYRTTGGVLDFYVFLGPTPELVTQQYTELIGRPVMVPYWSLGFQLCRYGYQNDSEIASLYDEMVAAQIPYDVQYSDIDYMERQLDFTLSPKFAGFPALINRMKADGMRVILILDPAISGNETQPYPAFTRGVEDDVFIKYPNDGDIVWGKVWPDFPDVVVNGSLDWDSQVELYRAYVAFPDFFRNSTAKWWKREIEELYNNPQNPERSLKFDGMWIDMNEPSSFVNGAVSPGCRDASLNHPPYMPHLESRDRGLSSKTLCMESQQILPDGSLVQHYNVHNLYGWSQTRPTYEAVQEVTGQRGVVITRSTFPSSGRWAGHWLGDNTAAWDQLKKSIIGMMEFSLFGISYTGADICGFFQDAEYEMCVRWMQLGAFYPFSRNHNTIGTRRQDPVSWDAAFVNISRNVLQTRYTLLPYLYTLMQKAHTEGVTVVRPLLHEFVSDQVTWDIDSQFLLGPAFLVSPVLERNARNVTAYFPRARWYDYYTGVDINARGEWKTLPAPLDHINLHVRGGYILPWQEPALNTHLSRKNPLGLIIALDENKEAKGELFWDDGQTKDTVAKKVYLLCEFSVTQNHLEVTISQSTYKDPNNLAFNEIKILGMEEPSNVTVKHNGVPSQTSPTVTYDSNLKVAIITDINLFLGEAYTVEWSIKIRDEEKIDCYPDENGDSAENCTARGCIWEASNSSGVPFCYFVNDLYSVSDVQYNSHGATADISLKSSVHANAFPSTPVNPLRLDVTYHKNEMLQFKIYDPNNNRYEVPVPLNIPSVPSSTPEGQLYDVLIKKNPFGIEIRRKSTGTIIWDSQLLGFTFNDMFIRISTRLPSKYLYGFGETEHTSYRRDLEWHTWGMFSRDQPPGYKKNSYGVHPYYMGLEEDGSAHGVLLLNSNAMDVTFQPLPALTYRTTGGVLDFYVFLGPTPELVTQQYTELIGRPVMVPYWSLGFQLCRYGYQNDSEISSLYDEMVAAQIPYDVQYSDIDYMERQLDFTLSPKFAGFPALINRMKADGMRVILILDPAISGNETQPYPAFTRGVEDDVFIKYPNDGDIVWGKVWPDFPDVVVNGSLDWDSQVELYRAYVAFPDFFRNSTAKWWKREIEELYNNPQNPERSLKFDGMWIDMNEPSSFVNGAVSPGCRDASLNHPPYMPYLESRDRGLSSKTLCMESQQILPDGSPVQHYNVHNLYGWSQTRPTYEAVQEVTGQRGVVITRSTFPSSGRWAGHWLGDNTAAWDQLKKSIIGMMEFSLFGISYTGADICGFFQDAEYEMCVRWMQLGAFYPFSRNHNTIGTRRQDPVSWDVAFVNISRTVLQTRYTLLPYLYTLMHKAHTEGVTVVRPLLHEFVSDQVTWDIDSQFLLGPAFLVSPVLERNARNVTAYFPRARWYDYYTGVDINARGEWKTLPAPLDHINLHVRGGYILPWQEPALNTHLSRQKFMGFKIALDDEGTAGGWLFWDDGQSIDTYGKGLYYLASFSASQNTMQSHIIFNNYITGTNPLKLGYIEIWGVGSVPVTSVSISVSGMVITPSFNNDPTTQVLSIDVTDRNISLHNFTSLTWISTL

For `C=CCc1cc(-c2cc(CC=C)c(O)c(C(c3ccc(Cl)cc3)N3CCOCC3)c2)c(O)c(C(c2ccc(Cl)cc2)N2CCOCC2)c1` (configuration not stated), the midpoint of inhibition in test [1], the IC50, lay at 18.6 µM. That is a double-digit micromolar value. In test [1], `C=CCc1cc(-c2ccc(O)c(CC=C)c2)c(O)c(C(c2ccc(OC)cc2)N2CCCCC2)c1` (configuration not stated) displayed an IC50 of 30.4 µM. This IC50 lies about 1.6-fold higher than the previous one. Regarding `C=CCc1cc(-c2ccc(O)c(CC=C)c2)c(O)c(C(c2cc(Cl)cc(Cl)c2)N2CCOCC2)c1` (configuration not stated), the concentration for half-maximal inhibition (IC50) in test [1] came to 13.8 µM. In test [2], the Ki amounted to 3.27 µM. Take `C=CCc1cc(-c2ccc(O)c(CC=C)c2)c(O)c(C(c2cc(Cl)cc(Cl)c2)N2CCC(C)CC2)c1` (configuration not stated): the IC50 in test [1] is 14.9 µM. The same compound gave a Ki in test [2] of 1.7 µM. Compound `C=CCc1cc(-c2ccc(O)c(CC=C)c2)c(O)c(C(c2cc(Cl)cc(Cl)c2)N2CCCCC2)c1` (configuration not stated) returned an IC50 in test [1] of 23.5 µM.
